What was measured:
[1] = Serum cytokine analysis (Luminex) after systemic administration; assay type: in vivo, BALB/c mice; conditions: i.p. 185 nmol/injection; sera 2, 4, 6, 24 hours; 1V270 vs 1V136
Protocol: FIG. 36. […] BALB/c mice (n=5) were i.p. administered IV270 (200 μg=185 nmol/injection) or […] (58 μg=185 nmol/injection) and sera were collected 2, 4, 6, and 24 hours following the administration. The levels of TNFα, IL-12, and IP-IO were measured by Luminex assay. *P<0.05, **P<0.01 by two way ANOVA using a Bonferroni post hoc test comparing treatment groups.
The sera were collected from mice receiving […] of 1V136, 1V270 or vehicle 2, 4, 6, and 24 hours after i.p. administration (15). Cytokine levels in sera were determined by Luminex bead assays (MILLIPLEX™ MAP kit, Millip ore, Billerica, Mass.).

B16-GLF cells = experiment: IV metastasis model of B16 melanoma; assay type: in vivo, mice; conditions: systemic 1V270 day -1
Protocol: FIGS. 27A-27D. […] Therapeutic effects of 1V270 were evaluated in IV metastatic models of 816 melanoma (A, B) and LLC (C, D). BG-albino mice (n=B-10) (A, C), C57BL6 wild type mice (n=15-20) (B and D), were i.p. administered with 200 μg 1V270 or vehicle!iNext day, 5×10^5 B16-GLF cells (A) or 1×10^5 LLC-GLF cells (c) were i.v. administered (A,C). The tumor signals were quantified by IVIS at day 14. […] (B,D) The mice were monitored daily and were euthanized upon reaching the criteria according to UCSD IACUC guidelines. The survival data were analyzed by Log-Rank test. Data were pooled from 2 independent experiments showing similar results and were analyzed by Living Image® software. […] Statistical differences were analyzed by the Mann-Whitney U test comparing 1V270 treatment groups against the vehicle. **P<0.05.
GFP and luciferase (GLF)-expressing tumor cells (2×10^4 of 4T1-GLF, 5×10^5 of B16-GLF, and […] of LLC-GLF) were i.v. injected into BALB/c mice for 4T1 models, BG-albino or wild-type C57BU6 for B16 melanoma or LLC models). […] Image data were acquired by 1 Ss exposure using the IVIS Spectrum and analyzed using the Living Image software, version 4.5.2 (Perkin Elmer, Waltham, Mass.). We confirmed that the tumor signals in the lungs at day 10 correlated with the number of lung metastasis determined on day 21, as well as the overall survival (Supplemental figures 10). […]

CD8+ T cells = experiment: TCR repertoire analysis of CD8+ T cells from TILs and spleens; assay type: in vivo, BALB/c mice
[2] = cited from earlier work
4T1 cells = experiment: IV (experimental) lung metastasis model of 4T1 breast cancer; assay type: in vivo, BALB/c mice

SMILES: CCCCCCCCC=CCCCCCCCC(=O)OCC(COP(=O)(O)OCCNC(=O)c1ccc(Cn2c(=O)[nH]c3c(N)nc(OCCOC)nc32)cc1)OC(=O)CCCCCCCC=CCCCCCCCC (stereo not drawn) [1V270]
- serum cytokine induction (TNFα, IL-12, IP-10) [1]: significantly lower levels of cytokine induction
- lung metastasis (IVIS tumor signal) (B16-GLF cells; B16-GLF, day 14): inhibited lung metastasis by day 14
- mouse survival (B16-GLF cells; B16): prolonged mouse survival
- BUB overlap index between TILs and splenocytes (CD8+ T cells; 1V270-treated tumor-exposed vs non-tumor exposed mice): significantly higher BUB indices
- number of shared clones in TILs (CD8+ T cells; 1V270 treated tumor-exposed group vs no-tumor exposed group): eight-fold higher
- TCRα clonotypes shared by 3 or more individuals (CD8+ T cells; non-tumor group): 5
- clonality of CD8+ T cells (CD8+ T cells; secondarily challenged tumors): increased clonality of CD8^+ T cells
- TCRα clonotypes shared by 3 or more individuals (CD8+ T cells; tumor-exposed group): 31
- TCRβ clonotypes shared by 3 or more individuals (CD8+ T cells; tumor-exposed group): 11
- frequency of shared clones (CD8+ T cells; tumor-exposed vs non-tumor exposed mice): significantly higher in tumor-exposed mice than in non-tumor exposed mice
- systemic cytokine release after intranasal administration [2]: without inducing systemic cytokine release
- lung metastasis after a single administration (4T1 cells; 200 μg i.p., 1 day prior to tumor inoculation): sufficient to inhibit lung metastasis
- lung metastasis (number of lung nodules) (4T1 cells; 1V270 2, 20 or 200 μg/injection i.p. days -1, 7, 10, 14, counted day 21): inhibited lung metastasis in a dose-dependent manner
- lowest effective dose (4T1 cells; i.p., inhibition of lung metastasis): 20 µg
- number of lung nodules (4T1 cells; intranasal 20 or 200 μg/50 μL on days -3, -1, 3, 7, 10): inhibited the number of lung nodules in a dose-dependent manner
